Measurements: the supplement of paper PMC10307832

What was measured:
Experiment in all cases: relative viability (nuclei count vs DMSO), 5 days (fraction); higher = more cells survive
BMX-IN-1 + Pictilisib = compound: C=CC(=O)Nc1cc(-n2c(=O)ccc3cnc4ccc(-c5ccc(NS(C)(=O)=O)cc5)cc4c32)ccc1C [BMX-IN-1] + CS(=O)(=O)N1CCN(Cc2cc3nc(-c4cccc5[nH]ncc45)nc(N4CCOCC4)c3s2)CC1 [Pictilisib] (partner 1 µM)
Summary of the method: (§1)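 One day after seeding in 1536-well plates, lung cancer cell lines were dosed by pin tool. Dosing was either single-drug or a fixed anchor-drug dose plus five library-drug doses (not always all listed) in √10 steps. After 5 days, nuclei were stained in one fix-and-stain step and counted on 4× images, and relative viability is the nuclei count of treated wells over that of vehicle wells, given as the median of duplicate plates.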

BMX-IN-1 + Linsitinib = compound: C=CC(=O)Nc1cc(-n2c(=O)ccc3cnc4ccc(-c5ccc(NS(C)(=O)=O)cc5)cc4c32)ccc1C [BMX-IN-1] + C[C@]1(O)C[C@@H](c2nc(-c3ccc4ccc(-c5ccccc5)nc4c3)c3c(N)nccn32)C1 [Linsitinib] (partner 1 µM)
Summary of the method: as §1

PAC-1 + Palbociclib = compound: C=CCc1cccc(/C=N/NC(=O)CN2CCN(Cc3ccccc3)CC2)c1O [PAC-1] + CC(=O)c1c(C)c2cnc(Nc3ccc(N4CCNCC4)cn3)nc2n(C2CCCC2)c1=O [Palbociclib] (partner 0.5 µM)
Summary of the method: as §1

PAC-1 + Pemetrexed = compound: C=CCc1cccc(/C=N/NC(=O)CN2CCN(Cc3ccccc3)CC2)c1O [PAC-1] + Nc1nc2[nH]cc(CCc3ccc(C(=O)N[C@@H](CCC(=O)O)C(=O)O)cc3)c2c(=O)[nH]1 [Pemetrexed] (partner 0.2 µM)
Summary of the method: as §1

HCC-827
relative viability (BMX-IN-1 + Pictilisib; first compound 0.02 µM): 1.03 | relative viability (BMX-IN-1 + Pictilisib; first compound 0.2 µM): 1.15 | relative viability (BMX-IN-1 + Pictilisib; first compound 0.6325 µM): 1.04 | relative viability (BMX-IN-1 + Pictilisib; first compound 2 µM): 1.05 | relative viability (BMX-IN-1 + Linsitinib; first compound 0.02 µM): 1.05 | relative viability (BMX-IN-1 + Linsitinib; first compound 0.2 µM): 1.01 | relative viability (BMX-IN-1 + Linsitinib; first compound 0.6325 µM): 0.999 | relative viability (BMX-IN-1 + Linsitinib; first compound 2 µM): 0.969 | relative viability (PAC-1 + Palbociclib; first compound 0.02 µM): 0.482 | relative viability (PAC-1 + Palbociclib; first compound 0.06325 µM): 0.461 | relative viability (PAC-1 + Palbociclib; first compound 0.2 µM): 0.442 | relative viability (PAC-1 + Palbociclib; first compound 2 µM): 0.473 | relative viability (PAC-1 + Pemetrexed; first compound 0.02 µM): 0.275 | relative viability (PAC-1 + Pemetrexed; first compound 0.06325 µM): 0.259 | relative viability (PAC-1 + Pemetrexed; first compound 0.2 µM): 0.256 | relative viability (PAC-1 + Pemetrexed; first compound 2 µM): 0.256

NCI-H1915
relative viability (BMX-IN-1 + Pictilisib; first compound 0.02 µM): 0.953 | relative viability (BMX-IN-1 + Pictilisib; first compound 0.2 µM): 0.898 | relative viability (BMX-IN-1 + Pictilisib; first compound 0.6325 µM): 1.14 | relative viability (BMX-IN-1 + Pictilisib; first compound 2 µM): 1.04 | relative viability (BMX-IN-1 + Linsitinib; first compound 0.02 µM): 1.14 | relative viability (BMX-IN-1 + Linsitinib; first compound 0.2 µM): 1.1 | relative viability (BMX-IN-1 + Linsitinib; first compound 0.6325 µM): 1.14 | relative viability (BMX-IN-1 + Linsitinib; first compound 2 µM): 1.1 | relative viability (PAC-1 + Palbociclib; first compound 0.02 µM): 0.502 | relative viability (PAC-1 + Palbociclib; first compound 0.06325 µM): 0.535 | relative viability (PAC-1 + Palbociclib; first compound 0.2 µM): 0.49 | relative viability (PAC-1 + Palbociclib; first compound 2 µM): 0.518 | relative viability (PAC-1 + Pemetrexed; first compound 0.02 µM): 0.552 | relative viability (PAC-1 + Pemetrexed; first compound 0.06325 µM): 0.471 | relative viability (PAC-1 + Pemetrexed; first compound 0.2 µM): 0.471 | relative viability (PAC-1 + Pemetrexed; first compound 2 µM): 0.473

NCI-H322M
relative viability (BMX-IN-1 + Pictilisib; first compound 0.02 µM): 0.558 | relative viability (BMX-IN-1 + Pictilisib; first compound 0.2 µM): 0.505 | relative viability (BMX-IN-1 + Pictilisib; first compound 0.6325 µM): 0.532 | relative viability (BMX-IN-1 + Pictilisib; first compound 2 µM): 0.583 | relative viability (BMX-IN-1 + Linsitinib; first compound 0.02 µM): 0.911 | relative viability (BMX-IN-1 + Linsitinib; first compound 0.2 µM): 0.971 | relative viability (BMX-IN-1 + Linsitinib; first compound 0.6325 µM): 0.891 | relative viability (BMX-IN-1 + Linsitinib; first compound 2 µM): 0.975 | relative viability (PAC-1 + Palbociclib; first compound 0.02 µM): 0.434 | relative viability (PAC-1 + Palbociclib; first compound 0.06325 µM): 0.42 | relative viability (PAC-1 + Palbociclib; first compound 0.2 µM): 0.519 | relative viability (PAC-1 + Palbociclib; first compound 2 µM): 0.466 | relative viability (PAC-1 + Pemetrexed; first compound 0.02 µM): 0.591 | relative viability (PAC-1 + Pemetrexed; first compound 0.06325 µM): 0.65 | relative viability (PAC-1 + Pemetrexed; first compound 0.2 µM): 0.618 | relative viability (PAC-1 + Pemetrexed; first compound 2 µM): 0.603

EKVX
relative viability (BMX-IN-1 + Pictilisib; first compound 0.02 µM): 0.522 | relative viability (BMX-IN-1 + Pictilisib; first compound 0.2 µM): 0.439 | relative viability (BMX-IN-1 + Pictilisib; first compound 0.6325 µM): 0.442 | relative viability (BMX-IN-1 + Pictilisib; first compound 2 µM): 0.404 | relative viability (BMX-IN-1 + Linsitinib; first compound 0.02 µM): 1.14 | relative viability (BMX-IN-1 + Linsitinib; first compound 0.2 µM): 1.17 | relative viability (BMX-IN-1 + Linsitinib; first compound 0.6325 µM): 1.13 | relative viability (BMX-IN-1 + Linsitinib; first compound 2 µM): 1.02 | relative viability (PAC-1 + Palbociclib; first compound 0.02 µM): 0.389 | relative viability (PAC-1 + Palbociclib; first compound 0.06325 µM): 0.385 | relative viability (PAC-1 + Palbociclib; first compound 0.2 µM): 0.308 | relative viability (PAC-1 + Palbociclib; first compound 2 µM): 0.388 | relative viability (PAC-1 + Pemetrexed; first compound 0.02 µM): 0.356 | relative viability (PAC-1 + Pemetrexed; first compound 0.06325 µM): 0.407 | relative viability (PAC-1 + Pemetrexed; first compound 0.2 µM): 0.355 | relative viability (PAC-1 + Pemetrexed; first compound 2 µM): 0.395

EMC-BAC-2
relative viability (BMX-IN-1 + Pictilisib; first compound 0.02 µM): 0.556 | relative viability (BMX-IN-1 + Pictilisib; first compound 0.2 µM): 0.562 | relative viability (BMX-IN-1 + Pictilisib; first compound 0.6325 µM): 0.621 | relative viability (BMX-IN-1 + Pictilisib; first compound 2 µM): 0.506 | relative viability (BMX-IN-1 + Linsitinib; first compound 0.02 µM): 0.916 | relative viability (BMX-IN-1 + Linsitinib; first compound 0.2 µM): 0.782 | relative viability (BMX-IN-1 + Linsitinib; first compound 0.6325 µM): 0.84 | relative viability (BMX-IN-1 + Linsitinib; first compound 2 µM): 0.802 | relative viability (PAC-1 + Palbociclib; first compound 0.02 µM): 0.55 | relative viability (PAC-1 + Palbociclib; first compound 0.06325 µM): 0.524 | relative viability (PAC-1 + Palbociclib; first compound 0.2 µM): 0.519 | relative viability (PAC-1 + Palbociclib; first compound 2 µM): 0.519 | relative viability (PAC-1 + Pemetrexed; first compound 0.02 µM): 0.49 | relative viability (PAC-1 + Pemetrexed; first compound 0.06325 µM): 0.479 | relative viability (PAC-1 + Pemetrexed; first compound 0.2 µM): 0.46 | relative viability (PAC-1 + Pemetrexed; first compound 2 µM): 0.464

HCC-15
relative viability (BMX-IN-1 + Pictilisib; first compound 0.02 µM): 0.721 | relative viability (BMX-IN-1 + Pictilisib; first compound 0.2 µM): 0.818 | relative viability (BMX-IN-1 + Pictilisib; first compound 0.6325 µM): 0.798 | relative viability (BMX-IN-1 + Pictilisib; first compound 2 µM): 0.844 | relative viability (BMX-IN-1 + Linsitinib; first compound 0.02 µM): 0.918 | relative viability (BMX-IN-1 + Linsitinib; first compound 0.2 µM): 0.984 | relative viability (BMX-IN-1 + Linsitinib; first compound 0.6325 µM): 0.899 | relative viability (BMX-IN-1 + Linsitinib; first compound 2 µM): 0.821 | relative viability (PAC-1 + Palbociclib; first compound 0.02 µM): 0.743 | relative viability (PAC-1 + Palbociclib; first compound 0.06325 µM): 0.747 | relative viability (PAC-1 + Palbociclib; first compound 0.2 µM): 0.628 | relative viability (PAC-1 + Palbociclib; first compound 2 µM): 0.689 | relative viability (PAC-1 + Pemetrexed; first compound 0.02 µM): 0.216 | relative viability (PAC-1 + Pemetrexed; first compound 0.06325 µM): 0.234 | relative viability (PAC-1 + Pemetrexed; first compound 0.2 µM): 0.247 | relative viability (PAC-1 + Pemetrexed; first compound 2 µM): 0.22

LXF-289
relative viability (BMX-IN-1 + Pictilisib; first compound 0.02 µM): 0.808 | relative viability (BMX-IN-1 + Pictilisib; first compound 0.2 µM): 0.863 | relative viability (BMX-IN-1 + Pictilisib; first compound 0.6325 µM): 0.88 | relative viability (BMX-IN-1 + Pictilisib; first compound 2 µM): 0.761 | relative viability (BMX-IN-1 + Linsitinib; first compound 0.02 µM): 0.982 | relative viability (BMX-IN-1 + Linsitinib; first compound 0.2 µM): 1.05 | relative viability (BMX-IN-1 + Linsitinib; first compound 0.6325 µM): 1.07 | relative viability (BMX-IN-1 + Linsitinib; first compound 2 µM): 1.04 | relative viability (PAC-1 + Palbociclib; first compound 0.02 µM): 0.605 | relative viability (PAC-1 + Palbociclib; first compound 0.06325 µM): 0.599 | relative viability (PAC-1 + Palbociclib; first compound 0.2 µM): 0.597 | relative viability (PAC-1 + Palbociclib; first compound 2 µM): 0.597 | relative viability (PAC-1 + Pemetrexed; first compound 0.02 µM): 0.857 | relative viability (PAC-1 + Pemetrexed; first compound 0.06325 µM): 0.859 | relative viability (PAC-1 + Pemetrexed; first compound 0.2 µM): 0.873 | relative viability (PAC-1 + Pemetrexed; first compound 2 µM): 0.916

NCI-H358
relative viability (BMX-IN-1 + Pictilisib; first compound 0.02 µM): 0.387 | relative viability (BMX-IN-1 + Pictilisib; first compound 0.2 µM): 0.313 | relative viability (BMX-IN-1 + Pictilisib; first compound 0.6325 µM): 0.393 | relative viability (BMX-IN-1 + Pictilisib; first compound 2 µM): 0.336 | relative viability (BMX-IN-1 + Linsitinib; first compound 0.02 µM): 1 | relative viability (BMX-IN-1 + Linsitinib; first compound 0.2 µM): 0.732 | relative viability (BMX-IN-1 + Linsitinib; first compound 0.6325 µM): 0.816 | relative viability (BMX-IN-1 + Linsitinib; first compound 2 µM): 0.806 | relative viability (PAC-1 + Palbociclib; first compound 0.02 µM): 0.12 | relative viability (PAC-1 + Palbociclib; first compound 0.06325 µM): 0.133 | relative viability (PAC-1 + Palbociclib; first compound 0.2 µM): 0.116 | relative viability (PAC-1 + Palbociclib; first compound 2 µM): 0.115 | relative viability (PAC-1 + Pemetrexed; first compound 0.02 µM): 0.165 | relative viability (PAC-1 + Pemetrexed; first compound 0.06325 µM): 0.161 | relative viability (PAC-1 + Pemetrexed; first compound 0.2 µM): 0.187 | relative viability (PAC-1 + Pemetrexed; first compound 2 µM): 0.183
